The test system of data set [1] is chronic neuropathy induced by oxaliplatin in rat. The data set is described as follows: Thermal Place Preference Test 20° C. vs. 30° C., chronic neuropathy model, preventive diet.
Procedure: The rats were distributed among plastic cages with 4 rats per cage. The cages were placed in an air-conditioned room at 22° C.±2° C., with controlled hygrometry (50%), a day/night 12-hour lighting cycle, and free access to food and water.
Two types of compositions were used: • a composition containing a quantity of polyamines equivalent to that present in a daily food diet (Putrescine: 54 mg/kg, Cadaverine: 37 mg/kg, Spermidine: 27 mg/kg, Spermine: 7 mg/kg), • a composition with low polyamine content comprising less than 1600 picomoles/g polyamines (Putrescine<0.01 mg/kg, Cadaverine<0.01 mg/kg, Spermidine<0.01 mg/kg, Spermine<0.01 mg/kg).
The different types of diets (diet based on a composition comprising a normal content of polyamines or PCD (Polyamine Containing Diet) and a diet based on a composition with low polyamines content called PDD (Polyamine Deficient Diet)) were given as soon as the rats arrived in the animal housing facility i.e. one week before the start of experiments.
The Thermal Place Preference Test (Bioseb®, Chaville, France) is formed of two adjacent metal plates surrounded by a chamber in opaque Plexiglas. The rat is placed in the chamber and is free to move from one plate to the other. The first plate called the <<reference plate>> is held at ambient temperature (25-30° C.) and the second plate called the <<test plate>> is held at a cold temperature. Using an infrared camera connected to a computer, the time that the animal spends on each plate is measured, together with the number of movements between the two plates. Each session lasts 3 minutes. Habituation of the animals consists of placing the rats on the apparatus for 3 minutes several times a day maintaining the two plates at a temperature of 25° C. […] Three pairs of temperatures were chosen for the experiments in relation to the model examined:
Data set [2] shares this test system. The data set is described as follows: Thermal Place Preference Test 20° C. vs. 30° C., chronic neuropathy model, curative diet (PDD from D15). The following applies: rats on PCD diet.
Procedure: The Thermal Place Preference Test (Bioseb®, Chaville, France) is formed of two adjacent metal plates surrounded by a chamber in opaque Plexiglas. The rat is placed in the chamber and is free to move from one plate to the other. The first plate called the <<reference plate>> is held at ambient temperature (25-30° C.) and the second plate called the <<test plate>> is held at a cold temperature. Using an infrared camera connected to a computer, the time that the animal spends on each plate is measured, together with the number of movements between the two plates. Each session lasts 3 minutes. Habituation of the animals consists of placing the rats on the apparatus for 3 minutes several times a day maintaining the two plates at a temperature of 25° C.
Data set [3] concerns NR2B subunit of the NMDA receptors. Description: Western blot of NR2B expression and phosphorylation in the dorsal horn of the spinal cord. The class given is in vivo, rat. As to conditions: D3 after oxaliplatin 6 mg/kg ip, polyamine-containing diet, vs control animals. The protocol:
The dorsal corn of the spinal cord (L4-L6) was isolated on an ice block and immediately frozen in liquid nitrogen. The samples were then stored at −80° C. until analysis.
The tissue samples were subjected to cell lysis at 4° C. performed with 300 μL of stop buffer (50 mM Hepes, 150 mM NaCl, 10 mM EDTA, 10 mM Na2P2O7, 10 mM vanadate, 2 mM Na3VO4, 100 mM NaF, 1% Triton, 0.5 mM PMSF, 100 UI/mL Iniprol and 20 μM Leupeptine, pH 7.5). After sonication (1 to 2 minutes at 4° C.), the sample was centrifuged at 14000 rpm at 4° C. and the supernatant collected. This centrifuging step was repeated once. The supernatant contained the cytoplasmic and membrane proteins assayed by colorimetry (BC Assay UP40840A®, Interchim). […] The proteins were then transferred onto a nitrocellulose membrane (Millipore) for 2 hours in a transfer buffer (25 mM Tris, 190 mM glycine, 20% methanol, pH 8.3). The membranes were hybridised with the corresponding antibodies overnight at 4° C. […] The Western-Blots were scanned with an image analyser ChemiDoc™ XRS System, Bio-rad®) and the density of each band was quantified using computer software (Image Lab™ software, Bio-rad®)). […] The results are expressed as a percentage of the control group (non-treated group receiving a diet containing polyamines, PCD CT).
A general note: Immunoblotting shows a protein as a band on a membrane.

In the case of `O=C1[O][Pt]2([NH][C@@H]3CCCC[C@H]3[NH]2)[O]C1=O` [oxaliplatin], the “change in time spent on the test plate (20° C.) vs control rats on PCD diet” value is reported as −42% in data set [1] (D10, p<0.001); −32% in data set [1] (D15, p<0.001); −24% in data set [1] (D22, p<0.001); −20% in data set [1] (D29, p<0.05). Besides, the “change in time spent on the test plate (20° C.) vs control rats” value in data set [2] (D4 (maximal), p<0.01) is recorded as −46%; in data set [2] (D39, p<0.01), −15%. In addition, the “expression of the NR2B subunit” value in data set [3] is “No variation”. Moreover, the “phosphorylation of the NR2B subunit on tyrosine sites 1472 and 1336 and serine site 1303” value in data set [3] is recorded as “No variation”.

(Values after patent US20140128461A1, “USE OF A FOOD COMPOSITION IN THE TREATMENT AND/OR PREVENTION OF NEUROPATHIC PAIN INDUCED BY AN ANTICANCER AGENT” (priority 2010, published 2014).)
